Results taken from patent publication US7109240B2, “Non-hazardous pest control” (Ecosmart Technologies, Inc., priority 1993, dated 2006).

What was measured:
[1] = tested on: German cockroaches; test: Knockdown of cockroaches continuously confined to calcium carbonate + 5% neurally effective substance; type: in vivo, Blattella, germanica; conditions: for insecticidal activity (in words): 5% (wt/wt) in calcium carbonate, or dust alone; for KT50 / KT90 / KT90, Hours: 5% (wt/wt) ingredient in calcium carbonate, or dust alone, 1.2 cc, 78 ± 4° F., 55 ± 6% rh
Method: (§1) Continuous exposure tests.—The intrinsic insecticidal activity of the insecticide dust against B. germanica was determined by exposing cockroaches to fresh and aged deposits of the dust. Replicated groups of three to ten adult cockroaches from culture were confined to deposits of the dust, and its speed of action in terms of knockdown (KD) and paralysis was determined. Adult male cockroaches from culture were placed directly onto fairly heavy deposits of dust (1 to 1.2 cc) spread evenly on filter paper in covered 9-cm-diameter petri dishes. The time for irreversible KD to occur (KT) was determined from periodic, irregular observation. The insects were considered KD when they were on their back, or could be turned over, and could not right themselves within at least two minutes. […] Comparison of KD activity was made with some commercial dust formulations including a non-fluorinated silica aerogel (SG-68), Drione™ (a fluorinated silica aerogel+pyrethrins), and a commercial diatomaceous earth (Celite™) applied and tested in the same manner.
(§2) The beads were screened out of the resultant mix. Exactly 1.2 cc of dust or dust was spread onto Whatman filter paper in 9-cm-diam petri dishes and the knockdown (KD) of cockroaches confined to the dust mix was determined by periodically observing KD.

[2] = tested on: German cockroaches; conditions: choice box; repellency measure
Method: Choice box tests.—The activity and repellency of the present insecticide dust in a choice test was determined with standard two-compartment choice boxes.
Choice boxes are 30.5 cm square, 10 cm tall wooden boxes, with a tempered masonite floor. A vertical partition panel separates the box into two equal-sized compartments. A 1.3 cm hole at the top center of the partition panel allows cockroaches to move from one compartment to the other. Transparent sheet plexiglass (0.3 cm thick) taped to the top retains cockroaches in the box and allows observation of live and dead in each compartment. A piece of masonite keeps one compartment dark (dark compartment). […]
Five boxes were used for each treatment and the untreated control. […] Cockroaches prefer to aggregate in the dark, and they will normally readily move from the light compartment to the dark compartment of untreated choice boxes within a day or two. […] The number dead and alive in each compartment of each box was recorded every few days. […]
The mortality produced in choice boxes, and the position of cockroaches in relation to the treatment, provides a measure of the likely ultimate efficacy of a treatment when used under actual field conditions. […] On the other hand, slow-acting insecticides such as boric acid are effective in choice box tests because cockroaches readily walk on those deposits and are eventually killed by them.

[3] = tested on: German cockroaches; test: Phenol vs. terpineol in calcium carbonate: knockdown of cockroaches; type: in vivo, Blattella, germanica
Method: as §2
A further test was conducted to compare the effectiveness of phenol vs. terpineol as a neurally effective substance.

[4] = tested on: adult male German cockroaches; test: Control test: knockdown of cockroaches continuously confined to deposits of the solid dust components; type: in vivo, Blattella, germanica; conditions: continuously confined to dust deposit; 76° F., 55% relative humidity
Method: as §1
A control test was conducted using only the solid components of the embodiment.

[5] = 0.32 % (wt/wt) in calcium carbonate
[6] = 0.63 % (wt/wt) in calcium carbonate
[7] = 1.25 % (wt/wt) in calcium carbonate
[8] = 2.5 % (wt/wt) in calcium carbonate
[9] = 5.0 % (wt/wt) in calcium carbonate

Structure (SMILES): CCCCC/C(C=O)=C/c1ccccc1 [Amyl cinnamic aldehyde, 5%, Amyl cinnamic aldehyde]
- insecticidal activity (in words) [1]: much slower, about as active as diatomaceous earth
- KT50 [1]: 9.4 h
- KT90 [1]: 15.5 h

Structure (SMILES): CC(=O)OCc1ccccc1 [Benzyl acetate]
- insecticidal activity (in words) [1]: most active
- KT50 [1]: 0.7 h
- KT90 [1]: 1.0 h
- KT90, Hours ([1]; listed as benzyl acetate): about one hour or so

Structure (SMILES): OB(O)O [Boric acid, tech., Boric acid]
- % of live in light on day 1 [2]: 13%
- % of live in light on day 7 [2]: 100%

Structure (SMILES): O=C([O-])[O-].[Ca+2] [Calcium carbonate (CaCO3), Calcium carbonate]
- insecticidal activity (in words) [1]: not insecticidal
- % KD at 24 h ([1]; dust alone): (1.3% KD at 24 h)

Structure (SMILES): CCOC(=O)c1ccccc1C(=O)OCC [Diethyl phthalate]
- insecticidal activity (in words) [1]: not insecticidal

Structure (SMILES): Oc1ccccc1 [Phenol]
- KT-50 [3, 5]: 16.5 h
- KT-90 [3, 5]: 24.0 h
- KT-50 [3, 6]: 7.5 h
- KT-90 [3, 6]: 20.3 h
- KT-50 [3, 7]: 0.4 h
- KT-90 [3, 7]: 1.5 h
- KT-50 [3, 8]: 0.2 h
- KT-90 [3, 8]: 0.4 h
- KT-50 [3, 9]: <0.1 h
- KT-90 [3, 9]: 0.1 h
- insecticidal activity (in words) ([3]; in CaCO3, every rate tested): more insecticidal than terpineol

Structure (SMILES): OCCc1ccccc1 [Phenyl ethyl alcohol]
- insecticidal activity (in words) [1]: most active
- KT50 [1]: 0.7 h
- KT90 [1]: 1.0 h
- KT90, Hours ([1]; listed as phenyl ethyl alcohol): about one hour or so

Structure (SMILES): O=C([O-])O.[Na+] [Sodium bicarbonate (NaHCO3), Sodium bicarbonate]
- KT50 [4]: 16.5 h
- KT90 [4]: 20.9 h
- KT50 [1]: 9.7 h
- KT90 [1]: 16.0 h
